Laboratory results as given in patent publication US20070197594A1, “Cyclic amine derivative or salt thereof” (ASTELLAS PHARMA INC., priority 2004, published 2007).
Where a name gives a salt, the structure may show the parent alone.

Target: NMDA receptor
Assay: MK-801 binding test ([3H]MK-801-binding assay, rat membrane specimen)
Conditions: NMDA receptor affinity, [3H]MK-801 4 nM in assay, Ki computed from IC50
Experimental: 1) Preparation of Specimens of Rat Meninges:
The whole brain was taken out from 10-week-age SD rats (30 heads, by Nippon SLC), and the cerebellum was removed from it. A 0.32 M sucrose solution was added to the part containing the cerebrum, cut in a mixer, and homogenized with a Teflon™ homogenizer. This was centrifuged at 2800 rpm and 4° C. for 15 minutes, and the resulting supernatant was again centrifuged at 15000 g and 4° C. for 20 minutes. The pellets were suspended in 50 mM Tris-HCL (pH 7.5) containing 0.08% Triton X-100, and kept statically on ice for 30 minutes, then centrifuged at 15000 g and 4° C. for 20 minutes. The pellets were suspended in 50 mM Tris-HCl (pH 7.5) added thereto, and centrifuged at 15000 g and 4° C. for 20 minutes. 50 mM Tris-HCl (pH 7.5) was again added to the pellets, and centrifuged in the same manner as before. The pellets were suspended in 20 ml of 50 mM Tris-HCl (pH 7.5) added thereto, and homogenized with a Teflon™ homogenizer. The membrane specimen was divided into small tubes and stored in a deep freezer (−80° C.). Before use, this washed twice with 5 mM Tris-HCl (pH 7.5) of five times that of the membrane specimen. Its concentration was controlled at 1 mg protein/ml with 5 mM Tris-HCl (pH 7.5) added to it, and this was used for assay.
50 μl of the rat membrane specimen (1 mg protein/ml) was added to a solution of a test compound dissolved in 1 μl of DMSO.

Compound	Ki
CN1CCC(C23OCCOc4c(F)ccc(c42)CC3(C)C)CC1 (stereo not shown) [Example 143, 4-(9-Fluoro-5,5-dimethyl-2,3,5,6-tetrahydro-4aH-indeno[1,7-ef][1,4]dioxepin-4a-yl-1-methylpiperidine fumarate]	700 nM
COc1c(C#N)cc(F)c2c1C(O)(C1CCN(C)CC1)C(C)(C)C2 (stereo not shown) [Example 113]	900 nM
CN1CCC(C2(O)c3ccccc3CCC2(C)C)CC1 (stereo not shown) [Example 53]	4100 nM
COc1ccc(F)c2c1C(O)(C1CCN(C)CC1)C(C)(C)C2 (stereo not shown) [Example 85]	6200 nM
Cc1ccc2c(c1)C(O)(CC(C)(C)N)C(C)(C)C2 (stereo not shown) [Example 131, 1-(2-Amino-2-methylpropyl)-2,2,6-trimethylindan-1-ol fumarate]	4800 nM
CN1CCC(C2(O)c3c(ccc(F)c3Br)CC2(C)C)CC1 (stereo not shown) [Example 34]	1800 nM
COc1c(F)c(F)cc2c1C(O)(C1CCN(C)CC1)C(C)(C)C2 (stereo not shown) [Example 108]	5600 nM
CN1CCC(C2(O)c3c(Br)ccc(F)c3CC2(C)C)CC1 (stereo not shown) [Example 36]	1900 nM
CN1CCC(C2(O)c3ccccc3CC2(C)C)CC1 (stereo not shown) [Example 1, 2,2-Dimethyl-1-(1-methylpiperidin-4-yl)indan-1-ol monofumarate]	1400 nM
CN1CCC(C2(O)c3c(c(F)cc4c3OCC4)CC2(C)C)CC1 (stereo not shown) [Example 139, 5-Fluoro-7,7-dimethyl-8-(1-methylpiperidin-4-yl)-2,6,7,8-tetrahydro-2H-indeno[4,5-b]furan-8-ol fumarate]	5000 nM
CCOc1c(F)ccc2c1C(O)(C1CCN(C)CC1)C(C)(C)C2 (stereo not shown) [Example 98]	8400 nM
COc1c(F)ccc2c1C1(CCC(CN3CCCC3)O1)C(C)(C)C2 (stereo not shown) [Example 145]	8400 nM
COc1c(F)ccc2c1C(O)(C1CCN(C)CC1)C(C)(C)C2 (stereo not shown) [Example 44]	930 nM
CN1CCC(C2(O)c3cc(F)ccc3CC2(C)C)CC1 (stereo not shown) [Example 9]	930 nM
CN1CCC(C2(O)c3cc(Br)cc(F)c3CC2(C)C)CC1 (stereo not shown) [Example 32]	440 nM
Cc1ccc2c(c1)C(O)(C1CCN(C)CC1)C(C)(C)C2 (stereo not shown) [Example 6, 2,2,6-trimethyl-1-(1-methylpiperidin-4-yl)indan-1-ol]	880 nM
CN1CCC(C2(O)c3ccc(Br)cc3CC2(C)C)CC1 (stereo not shown) [Example 15]	860 nM
COc1cc(F)c2c(c1OC)C(O)(C1CCN(C)CC1)C(C)(C)C2 (stereo not shown) [Example 101]	2100 nM
CN1CCC(C2(O)c3cc(Cl)c(F)cc3CC2(C)C)CC1 (stereo not shown) [Example 28]	1000 nM
